Reference: US20090233868A1, “Small antiviral peptides against hepatitis C virus” (priority 2005, published 2009)
Where no end group is shown, it is not given here.

Columns and labels:
[1] = tested on: HCV IRES mediated translation; test: In vitro translation of uncapped HCV-IRES-Luc monocistronic RNA in rabbit reticulocyte lysate; format: biochemical, hepatitis C virus; settings: RRL; for IC50: uncapped HCV IRES-Luc RNA, data not shown, read-out: IC50 for inhibition of HCV IRES mediated translation
[2] = tested on: cap-dependent translation; test: In vitro translation of capped Luciferase RNA in RRL; format: biochemical, rabbit; settings: 15, 30, 60 μM peptide; FIG. 5C
[3] = tested on: IRES mediated translation of hepatitis A virus; format: biochemical
[4] = tested on: Polio virus IRES function; format: biochemical; settings: at higher concentration (15, 30, 60 μM tested); FIG. 5E
[5] = tested on: HCV IRES mediated translation; test: In vitro translation of capped HCV bicistronic RNA in RRL; settings: 15, 30, 60 μM peptide; FIG. 5D
[6] = tested on: HCV IRES RNA; test: UV-crosslinking assay with [32P] labeled HCV IRES RNA; format: binding, hepatitis C virus; settings: 2 μM and 4 μM peptide; FIG. 6A
[7] = tested on: Huh7 cells; test: Internalization of fluorescein labeled hexa-arginine-tagged peptides; format: cell-based; settings: fluorescein tagged peptide, 3 hours incubation; FIG. 6B
[8] = tested on: HCV IRES mediated translation; test: HCV bicistronic construct luciferase assay in Huh7 cells with arginine-tagged peptides; format: cell-based, hepatitis C virus; settings: 2 μM peptide, 4 hours or 6 hours
[9] = tested on: HCV monocistronic replicon; test: HCV negative strand real time PCR in Huh7 cells harboring HCV monocistronic replicon; format: cell-based, hepatitis C virus

| Substance | IC50 [1] | Translation inhibitory activity on HCV IRES-Luc RNA ([1]; 30 and 60 μM (FIG. 3C) or 15, 30 and 60 μM (FIG. 5A, 5B)) | Inhibition of capped-Luciferase RNA translation (cap-dependent) [2] | Inhibition of IRES mediated translation of hepatitis A virus [3] | Inhibition of Polio virus IRES function [4] | Inhibition of HCV IRES (Fluc) vs cap dependent (Rluc) translation of bicistronic RNA [5] | RNA binding activity of hexa-arginine tagged peptides (UV cross-linking) [6] | Internalization into Huh7 cells (fluorescence microscope) [7] | Inhibition of HCV IRES mediated translation over the control in Huh7 cells [8] | Decrease in levels of HCV negative strand RNAs compared to untreated cells ([9]; 4 μM peptide added at 0 and 12th hour, RNA at 24th hour) | Inhibitory activity on HCV negative strand synthesis ([9]; 10 μM peptide, data not shown) |
| --- | --- | --- | --- | --- | --- | --- | --- | --- | --- | --- | --- |
| KYKETDL [LaR2C-N7] | ~40 µM | only slightly weaker than the 24-mer peptide | did not show significant inhibition | failed to inhibit | significant inhibition | selective inhibition of HCV IRES mediated translation |  |  |  |  |  |
| KYKETDLLILFKDDYFAKKNEERK [LaR2C] | 30 µM |  |  |  |  |  |  |  |  |  |  |
| RRRRRRKYKETDL [Arg-LaR2C-N7] |  |  |  |  |  |  | showed RNA binding activity | internalized inside Huh7 cells | up to 70% | ~50% | considerable increase in the inhibitory activity |
